Assay [1] has as its system MDA-MB-231. In words: Antiproliferative activity against human MDA-MB-231 cells assessed as cell growth at 1 uM incubated for 3 days by 3H-thymidine incorporation assay relative to control. The class given is functional. Conditions: read-out: Activity. (In general: Dividing cells build labelled thymidine or BrdU into new DNA.)
The next assay concerns Pseudomonas aeruginosa. Briefly: Antibacterial activity against Pseudomonas aeruginosa at 1 to 10 mg/ml incubated overnight by agar diffusion method. It counts as functional, organism-based. A general note: Agar diffusion results depend on both activity and mobility in agar.
Another assay has as its system Escherichia coli. Briefly: Antibacterial activity against Escherichia coli DH5[alpha] at 1 to 10 mg/ml incubated overnight by agar diffusion method. It counts as functional, organism-based.
A further assay relates to K562. In words: Antiproliferative activity against human K562 cells assessed as cell growth incubated for 3 days by 3H-thymidine incorporation assay relative to control. The class given is functional, cell-based.
The subject of assay [2] is MDA-MB-468. In words: Antiproliferative activity against human MDA-MB-468 cells assessed as cell growth at 1 uM incubated for 3 days by 3H-thymidine incorporation assay relative to control. It counts as functional. The settings on record: read-out: Activity.
In assay [3] the test system is MDA-MB-231. Briefly: Antiproliferative activity against human MDA-MB-231 cells assessed as cell growth incubated for 3 days by 3H-thymidine incorporation assay relative to control. It counts as functional, cell-based.
Assay [4] in a line: Antiproliferative activity against human HCT116 cells assessed as cell growth at 1 uM incubated for 3 days by 3H-thymidine incorporation assay relative to control. The class given is functional. Conditions: HCT-116, read-out: Activity.
A short description of assay [5]: Antiproliferative activity against human HCT116 cells assessed as cell growth incubated for 3 days by 3H-thymidine incorporation assay relative to control. The class given is functional, cell-based. The settings on record: HCT-116.
The next assay concerns Staphylococcus aureus. Briefly: Antibacterial activity against Staphylococcus aureus at 1 to 10 mg/ml incubated overnight by agar diffusion method. The class given is functional, organism-based.
The test system of assay [6] is MDA-MB-468. In words: Antiproliferative activity against human MDA-MB-468 cells assessed as cell growth incubated for 3 days by 3H-thymidine incorporation assay relative to control. The class given is functional, cell-based.

Activity calls are given as the source filed them. The rule behind the calls is not given here.

Turning to `Nc1c(C(=O)Nc2cccc3ccccc23)sc2nc3c(cc12)CCCC3`, the growth at 1 µM worked out at 60% in the assay with MDA-MB-231 [1], 8% with MDA-MB-468 [2] and 37% in assay [4]. The outcome with Pseudomonas aeruginosa, in the assay with Escherichia coli and in the assay on Staphylococcus aureus was inactive. The half-maximal inhibitory concentration (IC50) stood at 576 nM in the assay with K562, 854 nM in the assay with MDA-MB-231 [3], 720 nM in assay [5] and 447 nM in the assay on MDA-MB-468 [6].
In the case of `Nc1c(C(=O)Nc2cccc(F)c2)sc2nc3c(cc12)CCCCC3`, the growth at 1 µM in the assay on MDA-MB-231 [1] came out at 28%; in the assay with MDA-MB-468 [2], 10%; in [4], 29%. The concentration for half-maximal inhibition (IC50) was determined as 558 nM in the assay with K562, 448 nM with MDA-MB-231 [3], 543 nM in assay [5] and 351 nM in the assay on MDA-MB-468 [6].
Consider `Cc1c(Cl)cccc1NC(=O)c1sc2nc3c(cc2c1N)CCCC3`, for which the growth at 1 µM was 15% in the assay with MDA-MB-231 [1], 6% in the assay on MDA-MB-468 [2] and 3% in assay [4]. Also, the result with Pseudomonas aeruginosa, with Escherichia coli and in the assay with Staphylococcus aureus was inactive. Further, the half-inhibitory concentration (IC50) with K562 was found to be 153 nM; in the assay with MDA-MB-231 [3], 221 nM; in assay [5], 191 nM; in the assay with MDA-MB-468 [6] it was 134 nM.
In the case of `Nc1c(C(=O)Nc2ccccc2Cl)sc2nc3c(cc12)CCCC3`, the growth at 1 µM worked out at 119% with MDA-MB-231 [1], 95% in the assay on MDA-MB-468 [2] and 94% in assay [4]. Also, the outcome with Pseudomonas aeruginosa, in the assay on Escherichia coli and in the assay on Staphylococcus aureus was inactive.
Regarding `COc1cccc(NC(=O)c2sc3nc4c(cc3c2N)CCCCC4)c1`, the growth at 1 µM with MDA-MB-231 [1] was found to be 19%; in the assay with MDA-MB-468 [2] it was 3%; in assay [4], 6%. The IC50 in the assay with K562 came to 580 nM; with MDA-MB-231 [3], 524 nM; in assay [5], 601 nM; with MDA-MB-468 [6], 391 nM.
For the molecule `Cc1cccc(NC(=O)c2sc3nc4c(cc3c2N)CCCCCC4)c1C`, the growth at 1 µM in the assay with MDA-MB-231 [1] turned out to be 3%; with MDA-MB-468 [2] it was 4%; in assay [4], 6%. For the same molecule, the IC50 in the assay on K562 was 83 nM; in the assay on MDA-MB-231 [3], 170 nM; in assay [5], 183 nM; in the assay on MDA-MB-468 [6], 83 nM.
Turning to `Nc1c(C(=O)Nc2cccc(F)c2)sc2nc3c(cc12)CCCC3`, the figures for the growth at 1 µM (in the assay on MDA-MB-231 [1]; with MDA-MB-468 [2]; in assay [4]) were 30%, 11% and 11%, respectively. Further, the IC50 was found to be 554 nM with K562, 632 nM in the assay with MDA-MB-231 [3], 563 nM in assay [5] and 398 nM in the assay with MDA-MB-468 [6].
As to `Cc1cccc(NC(=O)c2sc3nc4c(cc3c2N)CCCC4)c1C`, the growth at 1 µM in the assay with MDA-MB-231 [1] came out at 4%; with MDA-MB-468 [2], 3%; in assay [4], 5%. Also, the half-inhibitory concentration (IC50) in the assay on K562 was determined as 152 nM; with MDA-MB-231 [3], 204 nM; in assay [5] it was 199 nM; in the assay on MDA-MB-468 [6], 148 nM.
Consider `Cc1c(Br)cccc1NC(=O)c1sc2nc3c(cc2c1N)CCC3`, for which the growth at 1 µM with MDA-MB-231 [1] turned out to be 16%; with MDA-MB-468 [2], 5%; in [4] it was 5%. Moreover, the IC50 is 83 nM in the assay on K562, 84 nM with MDA-MB-231 [3], 161 nM in assay [5] and 79 nM with MDA-MB-468 [6].
On to `Cc1c(Br)cccc1NC(=O)c1sc2nc3c(cc2c1N)CCCC3`, for which the growth at 1 µM with MDA-MB-231 [1] amounted to 5%; with MDA-MB-468 [2], 3%; in [4], 5%. Further, the IC50 in the assay with K562 came out at 185 nM; with MDA-MB-231 [3], 233 nM; in assay [5], 207 nM; with MDA-MB-468 [6], 185 nM.
Take `Nc1c(C(=O)Nc2ccccc2)sc2nc3c(cc12)CCCC3`: the growth at 1 µM worked out at 22% in the assay on MDA-MB-231 [1], 8% with MDA-MB-468 [2] and 5% in assay [4]. In addition, the 50% inhibitory concentration (IC50) was determined as 526 nM in the assay on K562, 617 nM in the assay with MDA-MB-231 [3], 594 nM in [5] and 407 nM in the assay with MDA-MB-468 [6].
Regarding `Nc1c(C(=O)Nc2ccccc2)sc2nc3c(cc12)CCCCC3`, the growth at 1 µM is 26% in the assay with MDA-MB-231 [1], 5% with MDA-MB-468 [2] and 6% in assay [4]. Besides, the IC50 with K562 was found to be 570 nM; in the assay on MDA-MB-231 [3], 508 nM; in assay [5] it was 606 nM; in the assay on MDA-MB-468 [6], 383 nM.
Consider `COc1cccc(NC(=O)c2sc3nc4c(cc3c2N)CCC4)c1`, for which the growth at 1 µM in the assay with MDA-MB-231 [1] was found to be 95%; with MDA-MB-468 [2], 63%; in [4] it was 92%. Also, the result in the assay with Pseudomonas aeruginosa, in the assay with Escherichia coli and in the assay with Staphylococcus aureus was inactive.
With `Cc1c(Cl)cccc1NC(=O)c1sc2nc3c(cc2c1N)CCC3`, the growth at 1 µM in the assay on MDA-MB-231 [1] is 11%; in the assay on MDA-MB-468 [2], 4%; in assay [4] it was 3%. Moreover, the IC50 in the assay with K562 was found to be 197 nM; with MDA-MB-231 [3], 593 nM; in assay [5], 218 nM; in the assay with MDA-MB-468 [6] it was 546 nM.
Consider `Nc1c(C(=O)Nc2ccccc2F)sc2nc3c(cc12)CCCCCC3`, for which the growth at 1 µM with MDA-MB-231 [1] stood at 24%; in the assay on MDA-MB-468 [2], 5%; in assay [4], 5%. Further, the IC50 was determined as 562 nM in the assay with K562, 587 nM with MDA-MB-231 [3], 599 nM in [5] and 372 nM in the assay on MDA-MB-468 [6].
Turning to `Cc1cccc(NC(=O)c2sc3nc4c(cc3c2N)CCCCC4)c1C`, the figures for the growth at 1 µM (in the assay on MDA-MB-231 [1]; in the assay on MDA-MB-468 [2]; in [4]) were 6%, 4% and 6%, respectively. Further, the concentration for half-maximal inhibition (IC50) with K562 is 167 nM; in the assay on MDA-MB-231 [3], 198 nM; in [5] it was 204 nM; with MDA-MB-468 [6], 121 nM.
For the molecule `Cc1c(Br)cccc1NC(=O)c1sc2nc3c(cc2c1N)CCCCC3`, the growth at 1 µM in the assay on MDA-MB-231 [1] was 12%; in the assay on MDA-MB-468 [2] it was 3%; in [4], 8%. Further, the half-maximal inhibitory concentration (IC50) in the assay with K562 came to 223 nM; in the assay with MDA-MB-231 [3] it was 198 nM; in assay [5] it was 442 nM; with MDA-MB-468 [6], 199 nM.
Turning to `Nc1c(C(=O)Nc2ccccc2F)sc2nc3c(cc12)CCCCC3`, the results for the growth at 1 µM (in the assay with MDA-MB-231 [1]; in the assay with MDA-MB-468 [2]; in assay [4]) were 46%, 11% and 15%, respectively. The half-inhibitory concentration (IC50) in the assay with K562 is 575 nM; with MDA-MB-231 [3], 672 nM; in assay [5], 798 nM; in the assay on MDA-MB-468 [6], 528 nM.
Regarding `Cc1ccc2nc3sc(C(=O)Nc4cccnc4)cc3cc2c1`, the growth at 1 µM in the assay on MDA-MB-231 [1] stood at 81%; in the assay on MDA-MB-468 [2], 101%; in assay [4] it was 102%.
On to `Nc1c(C(=O)Nc2ccc3ccccc3c2)sc2nc3c(cc12)CCC3`, for which the results for the growth at 1 µM (with MDA-MB-231 [1]; in the assay on MDA-MB-468 [2]; in [4]) were 81%, 64% and 94%, respectively.
As for `Cc1c(Cl)cccc1NC(=O)c1sc2nc3c(cc2c1N)CCCCC3`, the growth at 1 µM came out at 13% with MDA-MB-231 [1], 3% in the assay with MDA-MB-468 [2] and 10% in [4]. Besides, the half-maximal inhibitory concentration (IC50) in the assay on K562 amounted to 210 nM; with MDA-MB-231 [3], 190 nM; in assay [5] it was 266 nM; in the assay on MDA-MB-468 [6], 160 nM.
`CCc1cccc(C)c1NC(=O)c1sc2nc3c(cc2c1N)CCCC3`: the growth at 1 µM in the assay on MDA-MB-231 [1] turned out to be 84%; in the assay with MDA-MB-468 [2], 67%; in assay [4], 96%.
On the same counts, the results for `COc1ccc(NC(=O)c2sc3nc4c(cc3c2N)CCCCC4)cc1OC` are 114%, 77% and 98%.
Take `Nc1c(C(=O)Nc2cccc(Cl)c2)sc2nc3c(cc12)CCCCC3`: the growth at 1 µM in the assay with MDA-MB-231 [1] turned out to be 95%; in the assay on MDA-MB-468 [2] it was 39%; in assay [4] it was 86%.
With `Cc1ccc2nc3sc(C(=O)Nc4cccc(F)c4)cc3cc2c1`, the growth at 1 µM in the assay on MDA-MB-231 [1] is 103%; in the assay with MDA-MB-468 [2], 91%; in assay [4], 98%.
On to `Nc1c(C(=O)Nc2cccc(Cl)c2)sc2nc3c(cc12)CCCC3`, for which the results for the growth at 1 µM (with MDA-MB-231 [1]; in the assay on MDA-MB-468 [2]; in assay [4]) were 98%, 58% and 80%, respectively. Moreover, the outcome with Pseudomonas aeruginosa, with Escherichia coli and with Staphylococcus aureus was inactive.
As for `O=c1c2sc3ncccc3c2ncn1-c1ccccc1`, the values for the growth at 1 µM (with MDA-MB-231 [1]; in the assay with MDA-MB-468 [2]; in [4]) were 107%, 101% and 96%, respectively.

As usually defined, the IC50 is the concentration that gives 50% inhibition.

The values are drawn from ChEMBL document CHEMBL3758085, “Synthesis and cytotoxicity of thieno[2,3-b]quinoline-2-carboxamide and cycloalkyl[b]thieno[3,2-e]pyridine-2-carboxamide derivatives” (Bioorg Med Chem, 2016).
